Experimental data: patent publication US11857519B2, “Compounds and methods for the targeted degradation of enhancer of zeste homolog 2 polypeptide” (Arvinas Operations, Inc., priority 2016, dated 2024)

Target: T1, EZH2 (Homo sapiens, UniProt Q15910)
T1 construct: Protocol of the Cellular Assay of Target Protein Degradation (VCaP Cells, ELISA); endogenous in cells; host or cells: VCaP cells
Assay: Cellular assay of target protein degradation (VCaP cells, ELISA)
Assay type: cell-based
Settings: 4 hours, protein degradation range at indicated concentration (relative to DMSO control)
How it was run: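 VCaP cells grown ≥3 days in RPMI with 5% CSS, then dosed with compounds in 0.1% DMSO for 4 h. Lysates analysed by sandwich ELISA for EZH2 with TMB readout at 450 nm, 562 nm used for background subtraction.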

T1 sequence (Q15910 whole entry): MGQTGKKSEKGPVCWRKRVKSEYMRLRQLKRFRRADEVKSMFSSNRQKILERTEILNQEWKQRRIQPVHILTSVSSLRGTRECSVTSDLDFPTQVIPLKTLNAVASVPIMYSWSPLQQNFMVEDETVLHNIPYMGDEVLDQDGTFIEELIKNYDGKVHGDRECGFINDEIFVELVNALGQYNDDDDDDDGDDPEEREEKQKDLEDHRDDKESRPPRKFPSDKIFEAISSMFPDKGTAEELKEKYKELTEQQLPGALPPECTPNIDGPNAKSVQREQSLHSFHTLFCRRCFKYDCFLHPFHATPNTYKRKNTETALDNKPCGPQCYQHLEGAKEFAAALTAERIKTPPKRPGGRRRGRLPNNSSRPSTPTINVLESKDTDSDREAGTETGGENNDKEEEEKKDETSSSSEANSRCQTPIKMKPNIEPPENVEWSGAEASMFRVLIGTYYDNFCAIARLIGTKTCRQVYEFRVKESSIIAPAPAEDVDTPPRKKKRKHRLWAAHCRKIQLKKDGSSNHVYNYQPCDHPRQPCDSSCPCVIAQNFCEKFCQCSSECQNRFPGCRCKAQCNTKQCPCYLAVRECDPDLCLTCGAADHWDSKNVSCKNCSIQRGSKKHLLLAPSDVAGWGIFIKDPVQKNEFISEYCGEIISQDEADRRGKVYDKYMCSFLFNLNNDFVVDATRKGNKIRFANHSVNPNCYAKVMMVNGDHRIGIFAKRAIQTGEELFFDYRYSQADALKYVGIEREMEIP
T1 sequence (O75530 whole entry partner): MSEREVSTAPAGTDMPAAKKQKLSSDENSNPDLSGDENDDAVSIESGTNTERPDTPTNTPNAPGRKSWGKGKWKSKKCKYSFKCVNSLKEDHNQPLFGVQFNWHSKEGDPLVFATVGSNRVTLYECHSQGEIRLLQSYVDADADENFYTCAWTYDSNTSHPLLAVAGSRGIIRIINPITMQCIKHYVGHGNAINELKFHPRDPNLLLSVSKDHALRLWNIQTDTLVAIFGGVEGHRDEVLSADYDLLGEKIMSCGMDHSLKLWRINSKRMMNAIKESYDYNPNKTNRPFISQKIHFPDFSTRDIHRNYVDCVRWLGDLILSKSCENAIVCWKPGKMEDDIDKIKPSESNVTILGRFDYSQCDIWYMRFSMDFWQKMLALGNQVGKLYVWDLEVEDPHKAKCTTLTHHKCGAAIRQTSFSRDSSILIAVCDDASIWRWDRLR
T1 sequence (Q15022 whole entry partner): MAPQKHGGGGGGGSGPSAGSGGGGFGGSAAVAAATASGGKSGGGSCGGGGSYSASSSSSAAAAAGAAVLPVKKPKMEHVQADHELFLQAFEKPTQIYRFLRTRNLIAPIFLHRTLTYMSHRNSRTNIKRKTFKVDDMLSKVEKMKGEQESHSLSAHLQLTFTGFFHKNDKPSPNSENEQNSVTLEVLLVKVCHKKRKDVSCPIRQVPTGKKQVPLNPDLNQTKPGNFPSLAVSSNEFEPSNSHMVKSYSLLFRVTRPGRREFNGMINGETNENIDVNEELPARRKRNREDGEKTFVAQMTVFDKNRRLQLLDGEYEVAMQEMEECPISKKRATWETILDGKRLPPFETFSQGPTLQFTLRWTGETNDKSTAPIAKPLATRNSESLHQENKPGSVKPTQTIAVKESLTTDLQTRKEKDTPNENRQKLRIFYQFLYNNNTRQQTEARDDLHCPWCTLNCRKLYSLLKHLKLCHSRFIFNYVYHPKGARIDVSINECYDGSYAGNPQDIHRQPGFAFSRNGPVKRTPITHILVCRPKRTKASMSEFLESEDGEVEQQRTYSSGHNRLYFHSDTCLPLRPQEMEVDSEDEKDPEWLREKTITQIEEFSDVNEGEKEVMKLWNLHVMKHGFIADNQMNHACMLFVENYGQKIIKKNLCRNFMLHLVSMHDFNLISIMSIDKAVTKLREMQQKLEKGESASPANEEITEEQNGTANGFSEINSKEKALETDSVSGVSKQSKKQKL

percent target protein degradation class	Compound
A (A = degradation more than 60%)	CCN(c1cc(-c2ccc(OCCCCCOCCOc3cc(-c4scnc4C)ccc3CNC(=O)[C@@H]3C[C@@H](O)CN3C(=O)[C@H](C(C)C)N3Cc4ccccc4C3=O)cc2)cc(C(=O)NCc2c(C)cc(C)[nH]c2=O)c1C)C1CCOCC1 [Compound 50, (2S,4R)-N-({2-[2-({5-[4-(3-{[(4,6-dimethyl-2-oxo-1,2-dihydropyridin-3-yl)methyl]carbamoyl}-5-[ethyl(oxan-4-yl)amino]-4-methylphenyl)phenoxy]pentyl}oxy)ethoxy]-4-(4-methyl-1,3-thiazol-5-yl)phenyl}methyl)-4-hydroxy-1-[(2S)-3-methyl-2-(1-oxo-2,3-dihydro-1H-isoindol-2-yl)butanoyl]pyrrolidine-2-carboxamide]
A (A = degradation more than 60%)	CCN(c1cc(-c2ccc(OCCCCCOCC(=O)N[C@H](C(=O)N3C[C@H](O)C[C@H]3C(=O)N[C@@H](C)c3ccc(-c4scnc4C)cc3)C(C)(C)C)cc2)cc(C(=O)NCc2c(C)cc(C)[nH]c2=O)c1C)C1CCOCC1 [Compound 94, (2S,4R)-1-((S)-2-(2-((5-((3′-(((4,6-dimethyl-2-oxo-1,2-dihydropyridin-3-yl)methyl)carbamoyl)-5′-(ethyl(tetrahydro-2H-pyran-4-yl)amino)-4′-methyl-[1,1′-biphenyl]-4-yl)oxy)pentyl)oxy)acetamido)-3,3-dimethylbutanoyl)-4-hydroxy-N-((S)-1-(4-(4-methylthiazol-5-yl)phenyl)ethyl)pyrrolidine-2-carboxamide]
B (B = degradation between 30% and 60%)	CCN(c1cc(-c2ccc(OCCCOc3ccc4c(c3)C(=O)N([C@H](C(=O)N3C[C@H](O)C[C@H]3C(=O)N[C@@H](C)c3ccc(-c5scnc5C)cc3)C(C)C)C4)cc2)cc(C(=O)NCc2c(C)cc(C)[nH]c2=O)c1C)C1CCOCC1 [Compound 98, (2S,4R)-1-((S)-2-(6-(3-((3′-(((4,6-dimethyl-2-oxo-1,2-dihydropyridin-3-yl)methyl)carbamoyl)-5′-(ethyl(tetrahydro-2H-pyran-4-yl)amino)-4′-methyl-[1,1′-biphenyl]-4-yl)oxy)propoxy)-1-oxoisoindolin-2-yl)-3-methylbutanoyl)-4-hydroxy-N-((S)-1-(4-(4-methylthiazol-5-yl)phenyl)ethyl)pyrrolidine-2-carboxamide]
A (A = degradation more than 60%)	CCN(c1cc(-c2ccc(OCCCCCOCC(=O)N[C@H](C(=O)N3C[C@H](O)C[C@H]3C(=O)NCc3ccc(-c4scnc4C)cc3)C(C)(C)C)cc2)cc(C(=O)NCc2c(C)cc(C)[nH]c2=O)c1C)C1CCOCC1 [Compound 46, (2S,4R)-1-[(2S)-2-[2-({5-[4-(3-{[(4,6-dimethyl-2-oxo-1,2-dihydropyridin-3-yl)methyl]carbamoyl}-5-[ethyl(oxan-4-yl)amino]-4-methylphenyl)phenoxy]pentyl}oxy)acetamido]-3,3-dimethylbutanoyl]-4-hydroxy-N-{[4-(4-methyl-1,3-thiazol-5-yl)phenyl]methyl}pyrrolidine-2-carboxamide]
B (B = degradation between 30% and 60%)	CCN(c1cc(-c2ccc(OCCCOCCCOCCCOc3cc(-c4scnc4C)ccc3CNC(=O)[C@@H]3C[C@@H](O)CN3C(=O)[C@H](C(C)C)N3Cc4ccccc4C3=O)cc2)cc(C(=O)NCc2c(C)cc(C)[nH]c2=O)c1C)C1CCOCC1 [Compound 39, (2S,4R)-N-({2-[3-(3-{3-[4-(3-{[(4,6-dimethyl-2-oxo-1,2-dihydropyridin-3-yl)methyl]carbamoyl}-5-[ethyl(oxan-4-yl)amino]-4-methylphenyl)phenoxy]propoxy}propoxy)propoxy]-4-(4-methyl-1,3-thiazol-5-yl)phenyl}methyl)-4-hydroxy-1-[(2S)-3-methyl-2-(1-oxo-2,3-dihydro-1H-isoindol-2-yl)butanoyl]pyrrolidine-2-carboxamide]
A (A = degradation more than 60%)	CCN(c1cc(-c2ccc(OCCN3CCN(c4ccc5c(c4)C(=O)N(C4CCC(=O)NC4=O)C5=O)CC3)cc2)cc(C(=O)NCc2c(C)cc(C)[nH]c2=O)c1C)C1CCOCC1 (stereo not drawn) [Compound 91, N-((4,6-dimethyl-2-oxo-1,2-dihydropyridin-3-yl)methyl)-4′-(2-(4-(2-(2,6-dioxopiperidin-3-yl)-1,3-dioxoisoindolin-5-yl)piperazin-1-yl)ethoxy)-5-(ethyl(tetrahydro-2H-pyran-4-yl)amino)-4-methyl-[1,1′-biphenyl]-3-carboxamide]
B (B = degradation between 30% and 60%)	CCN(c1cc(-c2ccc(OCCOCCOCCNc3cccc4c3C(=O)N(C3CCC(=O)NC3=O)C4=O)cc2)cc(C(=O)NCc2c(C)cc(C)[nH]c2=O)c1C)C1CCOCC1 (stereo not drawn) [Compound 33, N-[(4,6-dimethyl-2-oxo-1,2-dihydropyridin-3-yl)methyl]-5-(4-{2-[2-(2-{[2-(2,6-dioxopiperidin-3-yl)-1,3-dioxo-2,3-dihydro-1H-isoindol-4-yl]amino}ethoxy)ethoxy]ethoxy}phenyl)-3-[ethyl(oxan-4-yl)amino]-2-methylbenzamide]
A (A = degradation more than 60%)	CCN(c1cc(-c2ccc(CCCOCCOCC(=O)N[C@H](C(=O)N3C[C@H](O)C[C@H]3C(=O)N[C@@H](C)c3ccc(-c4scnc4C)cc3)C(C)(C)C)cc2)cc(C(=O)NCc2c(C)cc(C)[nH]c2=O)c1C)C1CCOCC1 [Compound 89]

The next lines start with the compound.

Compound	percent target protein degradation class
Cc1cc(C)c(CNC(=O)c2cc(-c3ccc(CN4CCN(CCOCC(=O)N[C@H](C(=O)N5C[C@H](O)C[C@H]5C(=O)NCc5ccc(-c6scnc6C)cc5)C(C)(C)C)CC4)cc3)cc3c2ccn3C2CCCC2)c(=O)[nH]1 [Compound 1, 1-cyclopentyl-N-[(4,6-dimethyl-2-oxo-1,2-dihydropyridin-3-yl)methyl]-6-[4-({4-[2-({[(2S)-1-[(2S,4R)-4-hydroxy-2-({[4-(4-methyl-1,3-thiazol-5-yl)phenyl]methyl}carbamoyl)pyrrolidin-1-yl]-3,3-dimethyl-1-oxobutan-2-yl]carbamoyl}methoxy)ethyl]piperazin-1-yl}methyl)phenyl]-1H-indole-4-carboxamide]	B (B = degradation between 30% and 60%)
CCN(c1cc(-c2ccc(OCCOCCOCCOCCOCCOCCOCCOCCOCCNc3cccc4c3C(=O)N(C3CCC(=O)NC3=O)C4=O)cc2)cc(C(=O)NCc2c(C)cc(C)[nH]c2=O)c1C)C1CCOCC1 (stereo not drawn) [Compound 23, N-[(4,6-dimethyl-2-oxo-1,2-dihydropyridin-3-yl)methyl]-5-[4-({l-[2-(2,6-dioxopiperidin-3-yl)-1,3-dioxo-2,3-dihydro-1H-isoindol-4-yl]-4,7,10,13,16,19,22,25-octaoxa-1-azaheptacosan-27-yl}oxy)phenyl]-3-[ethyl(oxan-4-yl)amino]-2-methylbenzamide]	B (B = degradation between 30% and 60%)
(2R,3S,4R,5S)-3-(3-chloro-2- fluorophenyl)-4-(4-chloro-2- fluorophenyl)-4-cyano-N-[4- ({1-[4-(3-{[(4,6-dimethyl-2- oxo-1,2-dihydropyridin-3- yl)methyl]carbamoyl}-5- [ethyl(oxan-4-yl)amino]-4- methylphenyl)phenyl- 1,4,7,10,13,16- hexaoxaoctadecan-18- yl}carbamoyl)-2- methoxyphenyl]-5-(2,2- dimethylpropyl)pyrrolidine-2- carboxamide [Compound 27]	B (B = degradation between 30% and 60%)
Cc1cc(C)c(CNC(=O)c2c(C)n(C(C)C3CCN(C(=O)COCCOCCOCCNc4cccc5c4C(=O)N(C4CCC(=O)NC4=O)C5=O)CC3)c3ccccc23)c(=O)[nH]1 (stereo not drawn) [Compound 7, N-[(4,6-dimethyl-2-oxo-1,2-dihydropyridin-3-yl)methyl]-1-[1-(1-{1-[2-(2,6-dioxopiperidin-3-yl)-1,3-dioxo-2,3-dihydro-1H-isoindol-4-yl]-4,7,10-trioxa-1-azadodecanoyl}piperidin-4-yl)ethyl]-2-methyl-1H-indole-3-carboxamide]	B (B = degradation between 30% and 60%)
CCN(c1cc(-c2ccc(OCCOCCOCCOCCOCCOc3ccc(-c4csc([C@@H]5CCCN5C(=O)[C@@H](NC(=O)[C@H](C)NC)C5CCCCC5)n4)c4ccccc34)cc2)cc(C(=O)NCc2c(C)cc(C)[nH]c2=O)c1C)C1CCOCC1 [Compound 30, 5-(4-{[1-(4-{2-[(2S)-1-[(2S)-2-cyclohexyl-2-[(2S)-2-(methylamino)propanamido]acetyl]pyrrolidin-2-yl]-1,3-thiazol-4-yl}naphthalen-1-yl)-1,4,7,10,13-pentaoxapentadecan-15-yl]oxy}phenyl)-N-[(4,6-dimethyl-2-oxo-1,2-dihydropyridin-3-yl)methyl]-3-[ethyl(oxan-4-yl)amino]-2-methylbenzamide]	B (B = degradation between 30% and 60%)
CCN(c1cc(-c2ccc(OCCOCC(=O)N[C@H](C(=O)N3C[C@H](O)C[C@H]3C(=O)NCc3ccc(-c4scnc4C)cc3)C(C)(C)C)cc2)cc(C(=O)NCc2c(C)cc(C)[nH]c2=O)c1C)C1CCOCC1 [Compound 32, (2S,4R)-1-[(2S)-2-(2-{2-[4-(3-{[(4,6-dimethyl-2-oxo-1,2-dihydropyridin-3-yl)methyl]carbamoyl}-5-[ethyl(oxan-4-yl)amino]-4-methylphenyl)phenoxy]ethoxy}acetamido)-3,3-dimethylbutanoyl]-4-hydroxy-N-{[4-(4-methyl-1,3-thiazol-5-yl)phenyl]methyl}pyrrolidine-2-carboxamide]	B (B = degradation between 30% and 60%)
(2R,3S,4R,5S)-3-(3-chloro-2- fluorophenyl)-4-(4-chloro-2- fluorophenyl)-4-cyano-N-[4- ({1-[4-(3-{[(4,6-dimethyl-2- oxo-1,2-dibydropyridin-3- yl)methyl]carbamoyl}-5- [ethyl(oxan-4-yl)amino]-4- methylphenyl)phenyl]-1,4,7,10- tetraoxadodecan-12- yl}carbamoyl)-2- methoxyphenyl]-5-(2,2- dimethylpropyl)pyrrolidine-2- carboxamide [Compound 24]	B (B = degradation between 30% and 60%)
